Here are results for 5 compounds from US12220467B2, “Highly loaded metal oxide materials by self-assembly for extended biologically active molecule release in medical and dental applications” (MESOSIL INC., priority 2016, dated 2025).

Values after ≈ are worked out from the molar mass of the structure shown. Counter-ions that a name gives are not always drawn. Like-named read-outs stand apart in the source and are kept apart here.

The test system of one data set is S. mutans. The data set is described as follows: Antimicrobial studies against S. mutans. It counts as cell-based. The text has this: According to an embodiment, the amphiphilic biologically active agent may be a synthetic, natural or derived compound having properties for treating or preventing a disease or illness, including: pharmaceutical drugs, pharmaceutical conjugated drugs, pharmaceutical prodrugs, antimicrobial or antiseptic agents, antifungal agents, peptides, DNA or any combinations thereof, which when introduced into the body causes a desired biological response. According to another embodiment, the amphiphilic biologically active agent may be an active agent with a suitable biocompatibility index. Such biologically active agent may have a biocompatibility index greater than 1. According to another embodiment, the preferred amphiphilic biologically active agent may be an antibacterial agent. According to a further embodiment, the most preferred amphiphilic biologically active agent may be the antibacterial agent OCT. OCT is an amphiphilic antiseptic agent with a biocompatibility index of greater than 1. OCT has shown a broad range of efficacy against gram positive and negative bacteria and is used currently as a mouth rinse, wound cleansing agent, topical antiseptic, and for other applications. The CMC of OCT was determined to be 3.79 mM.

Data set [1] deals with murine fibroblasts and test microorganisms (Escherichia coli and Staphylococcus aureus).
Description: The term “biocompatibility index” is defined by the active agent's effective biological activity and its cytotoxic effect on human or animal cells. […] The biocompatibility index will take into account both the results of the in vitro cytotoxicity, i.e., the concentration at which 50% of the murine fibroblasts are damaged, and the microbial effect, i.e., the concentration at which the baseline burden of the test microorganisms (e.g., Escherichia coli and Staphylococcus aureus) is reduced by at least 3 log 10 (99.9%). A biocompatibility index greater than 1 represent an antibacterial substance with an effective microbicidal activity combined with a relatively low cytotoxicity. […] A biocompatibility index less than 1 indicates an antimicrobial agent with a relatively high cytotoxicity in a defined medium.
The conditions of data set [2]: literature values; cited from earlier work.
A further data set has as its system E. coli. To be noted: cited from earlier work.
A further data set concerns human keratinocyte. To be noted: cited from earlier work.
The subject of the next data set is S. aureus. To be noted: cited from earlier work.
In the next data set the test system is murine fibroblasts. To be noted: cited from earlier work.
Data set [3] relates to murine fibroblasts and test microorganisms (Escherichia coli and Staphylococcus aureus). To be noted: cited from earlier work.
The next data set has as its system mammalian cell. To be noted: cited from earlier work.

Take `CCCCCCCCN=c1ccn(CCCCCCCCCCn2ccc(=NCCCCCCCC)cc2)cc1` [OCT, octenidine dihydrochloride]: the “antimicrobial activity compared with CHX” value with S. mutans was “compared favorably with CHX”.
As to `CCCCCCCCCCCC(=O)N[C@@H](CCCN=C(N)N)C(=O)OCC` [LAE, lauric arginate], the biocompatibility index in data set [1] was 5.33. For the same compound, in [2], the CMC is reported as 4.9 mM. In addition, the “MIC against E. coli” value in the data set with E. coli is 11.8 µg/mL (≈ 30.7 µM). Moreover, the “concentration for 50% reduction of human keratinocyte growth” value in the data set with human keratinocyte was 63 µg/mL.
In the case of `CCCCCCCCCCCCCCCC[N+](C)(C)C.[Br-]` [CTAB, cetyltrimethylammonium bromide], the “minimum inhibitory concentration (MIC) against S. aureus” value with S. aureus is 16 µg/mL. For the same compound, in the data set on murine fibroblasts, the “concentration for 50% reduction in murine fibroblasts” value is 2 µg/mL. The biocompatibility index result in [3] is reported as “less than 1”. The “concentration able to reduce mammalian cell viability” value in the data set with mammalian cell is “less than 1 μM”.
In the case of benzalkonium chloride, the biocompatibility index in data set [3] was 0.79.
On to polyhexamethylene biguanide [PHMB], for which the CMC in [2] is 20 to 50 mM. The biocompatibility index in data set [3] (reported in literature) is listed as 1.36.
